Legend:
Type in all cases: cell-based
[1] = biological target: T1, RIPK1 (Homo sapiens, UniProt Q13546, L159V/D180S); experiment: p-S166 autophosphorylation blot, dose response
T1 construct: residues 1–330, Flag-tagged, in 293T cells
T1 sequence (Q13546 1-330 L159V/D180S): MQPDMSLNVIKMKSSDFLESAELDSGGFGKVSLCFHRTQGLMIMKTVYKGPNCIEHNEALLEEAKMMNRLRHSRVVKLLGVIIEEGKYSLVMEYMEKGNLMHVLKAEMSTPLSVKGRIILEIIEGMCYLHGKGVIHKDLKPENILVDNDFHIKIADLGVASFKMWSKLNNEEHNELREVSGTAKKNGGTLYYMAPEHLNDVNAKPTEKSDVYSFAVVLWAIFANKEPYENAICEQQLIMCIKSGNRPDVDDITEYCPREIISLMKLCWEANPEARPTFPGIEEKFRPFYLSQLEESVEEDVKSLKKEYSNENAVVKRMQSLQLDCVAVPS

[2] = biological target: T2, RIPK1 (Mus musculus, UniProt Q60855); experiment: CETSA in MEFs; p-S166 blot of mRIPK1-FKBP in L929 cells
T2 construct: endogenous RIPK1 (MEFs)
T2 sequence (Q60855 1-656): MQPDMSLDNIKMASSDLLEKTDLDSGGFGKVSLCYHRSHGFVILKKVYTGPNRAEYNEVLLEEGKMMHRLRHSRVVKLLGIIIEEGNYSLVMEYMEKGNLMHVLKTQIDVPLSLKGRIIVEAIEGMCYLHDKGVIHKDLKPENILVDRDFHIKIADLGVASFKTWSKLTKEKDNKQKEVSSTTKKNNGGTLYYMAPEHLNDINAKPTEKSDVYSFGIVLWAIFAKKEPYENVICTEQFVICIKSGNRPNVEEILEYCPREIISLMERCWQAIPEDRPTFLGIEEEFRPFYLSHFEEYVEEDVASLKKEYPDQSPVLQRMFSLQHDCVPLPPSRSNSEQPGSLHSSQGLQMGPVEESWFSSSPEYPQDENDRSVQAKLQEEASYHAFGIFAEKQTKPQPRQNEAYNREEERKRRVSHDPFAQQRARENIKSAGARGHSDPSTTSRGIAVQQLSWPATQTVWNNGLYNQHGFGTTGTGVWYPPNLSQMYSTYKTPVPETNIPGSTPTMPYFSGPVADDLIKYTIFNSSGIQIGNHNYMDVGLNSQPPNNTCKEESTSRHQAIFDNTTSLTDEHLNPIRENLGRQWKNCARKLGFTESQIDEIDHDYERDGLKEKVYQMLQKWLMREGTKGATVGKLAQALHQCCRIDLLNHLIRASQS

[3] = biological target: T3, RIPK1 (Homo sapiens, UniProt Q13546, S161A); experiment: CETSA; p-S166 autophosphorylation blot
T3 construct: HA-tagged hRIPK1 S161A reconstituted in RIPK1-deficient Jurkat cells
T3 sequence (Q13546 1-671 S161A): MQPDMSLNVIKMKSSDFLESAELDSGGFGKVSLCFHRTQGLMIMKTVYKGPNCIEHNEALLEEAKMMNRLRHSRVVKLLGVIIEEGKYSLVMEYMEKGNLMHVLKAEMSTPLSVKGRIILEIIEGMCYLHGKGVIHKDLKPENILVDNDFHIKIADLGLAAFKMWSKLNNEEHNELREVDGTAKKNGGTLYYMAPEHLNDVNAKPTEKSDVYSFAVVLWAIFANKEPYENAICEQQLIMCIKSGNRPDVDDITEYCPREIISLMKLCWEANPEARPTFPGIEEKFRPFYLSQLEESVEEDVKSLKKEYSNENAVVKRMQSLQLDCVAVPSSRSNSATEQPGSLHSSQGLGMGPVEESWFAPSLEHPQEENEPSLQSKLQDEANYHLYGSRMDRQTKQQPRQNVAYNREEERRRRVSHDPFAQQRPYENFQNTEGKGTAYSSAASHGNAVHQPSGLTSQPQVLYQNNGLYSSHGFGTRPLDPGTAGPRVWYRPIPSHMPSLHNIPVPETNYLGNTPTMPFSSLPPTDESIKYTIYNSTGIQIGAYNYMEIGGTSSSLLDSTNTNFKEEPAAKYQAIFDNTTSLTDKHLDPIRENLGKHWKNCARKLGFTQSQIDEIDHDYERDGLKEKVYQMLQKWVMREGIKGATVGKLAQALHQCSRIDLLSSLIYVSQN

In the case of `Cc1ccc(C2CC(=O)NC(SCC(=O)Nc3nccs3)=C2C#N)cc1` (stereo not drawn) [Nec-34], the “p-S166 autophosphorylation blot, dose response” value [1] is reported as “Nec-34 was more potent in inhibiting L159V/D180S hRIPK1 than WT-hRIPK1”, the “CETSA in MEFs; p-S166 blot of mRIPK1-FKBP in L929 cells” value [2] is reported as “Nec-34 is able to bind endogenous RIPK1 in situ to increase its thermo-resistance” and the “CETSA; p-S166 autophosphorylation blot” value [3] is reported as “Nec-34 stabilized reconstituted S161A mutant RIPK1 as well as WT-RIPK1 in the soluble fraction under elevated temperatures”.
